# Data published in BindingDB's records for doi:10.1021/jm800940u (Schering-Plough Research Institute, 2009).
# Target: Genome polyprotein (Hepatitis C virus genotype 1a (isolate H77), UniProt P27958)
# Assay: Continuous Spectrophotometric Assay
# Settings: not given
# Experimental: Proteolytic cleavage of the ester linkage between the Nva (L-norvaline) and the chromophore (PAP) was monitored for change in absorbance at 370 nm. Initial velocities were determined using linear regression and kinetic constants were obtained by fitting the data to the Michaelis-Menten equation.
# Genome polyprotein, sequence (P27958 1027-1657 limits assumed): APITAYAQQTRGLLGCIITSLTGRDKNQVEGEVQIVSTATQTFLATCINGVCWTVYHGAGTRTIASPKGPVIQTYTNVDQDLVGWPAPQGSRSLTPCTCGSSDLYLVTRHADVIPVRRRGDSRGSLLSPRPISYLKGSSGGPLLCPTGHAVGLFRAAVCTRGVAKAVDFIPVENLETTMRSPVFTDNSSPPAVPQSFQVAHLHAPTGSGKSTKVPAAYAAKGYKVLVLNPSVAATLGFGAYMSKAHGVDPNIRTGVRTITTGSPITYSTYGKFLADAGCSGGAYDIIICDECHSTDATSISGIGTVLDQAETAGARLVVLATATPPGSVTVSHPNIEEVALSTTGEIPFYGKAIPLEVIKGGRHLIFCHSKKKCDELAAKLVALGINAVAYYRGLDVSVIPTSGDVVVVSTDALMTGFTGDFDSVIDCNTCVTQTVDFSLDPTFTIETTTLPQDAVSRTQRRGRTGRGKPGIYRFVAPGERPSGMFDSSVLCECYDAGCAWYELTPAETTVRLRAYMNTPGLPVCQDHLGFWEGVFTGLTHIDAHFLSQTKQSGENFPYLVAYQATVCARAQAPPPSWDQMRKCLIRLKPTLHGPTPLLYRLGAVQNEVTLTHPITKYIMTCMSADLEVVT
row,Ki,SMILES
1,4 nM,"C=CCNC(=O)C(=O)[C@@H]1CCCCCCCCC[C@H](NC(=O)N[C@H](CN2C(=O)CN(C)CC2=O)C(C)(C)C)C(=O)N2C[C@H]3[C@@H]([C@H]2C(=O)N1)C3(C)C [2-[(3S,13S,16S,17R,19S)-3-({[(2S)-3,3-dimethyl-1-(4-methyl-2,6-dioxopiperazin-1-yl)butan-2-yl]carbamoyl}amino)-18,18-dimethyl-2,15-dioxo-1,14-diazatricyclo[14.4.0.0^{17,19}]icosan-13-yl]-2-oxo-N-(prop-2-en-1-yl)acetamide]"
2,16 nM,"C=CCNC(=O)C(=O)[C@@H]1CCCCCCCCC[C@H](NC(=O)N[C@H](CN2C(=O)c3ccccc3C2=O)C(C)(C)C)C(=O)N2C[C@H]3[C@@H]([C@H]2C(=O)N1)C3(C)C [2-[(3S,13S,16S,17R,19S)-3-({[(2S)-1-(1,3-dioxo-2,3-dihydro-1H-isoindol-2-yl)-3,3-dimethylbutan-2-yl]carbamoyl}amino)-18,18-dimethyl-2,15-dioxo-1,14-diazatricyclo[14.4.0.0^{17,19}]icosan-13-yl]-2-oxo-N-(prop-2-en-1-yl)acetamide]"

# Same assay, conditions: pH 6.5; 30 °C
row,Ki,SMILES
1,37 nM,"CC(C)(C)OC(=O)[C@@H](NC(=O)N[C@H]1CCCCCCCCCC[C@@H](C(=O)C(N)=O)NC(=O)[C@@H]2[C@@H]3[C@H](CN2C1=O)C3(C)C)C(C)(C)C [tert-butyl (2S)-2-({[(3S,14S,17S,18R,20S)-14-(carbamoylcarbonyl)-19,19-dimethyl-2,16-dioxo-1,15-diazatricyclo[15.4.0.0^{18,20}]henicosan-3-yl]carbamoyl}amino)-3,3-dimethylbutanoate]"
2,6 nM,"CN(C)C(=O)[C@@H](NC(=O)CNC(=O)C(=O)[C@@H]1CCCCCCCCCC[C@H](NC(=O)NC(C)(C)C)C(=O)N2C[C@H]3[C@@H]([C@H]2C(=O)N1)C3(C)C)c1ccccc1 [2-[(3S,14S,17S,18R,20S)-3-[(tert-butylcarbamoyl)amino]-19,19-dimethyl-2,16-dioxo-1,15-diazatricyclo[15.4.0.0^{18,20}]henicosan-14-yl]-N-({[(S)-(dimethylcarbamoyl)(phenyl)methyl]carbamoyl}methyl)-2-oxoacetamide]"
3,14 nM,"CCCNC(=O)C(=O)[C@@H]1CCCCCCCCC[C@H](NC(=O)N[C@H](CN(C)S(=O)(=O)c2cccs2)C(C)(C)C)C(=O)N2C[C@H]3[C@@H]([C@H]2C(=O)N1)C3(C)C [2-[(3S,13S,16S,17R,19S)-3-({[(2S)-3,3-dimethyl-1-[methyl(thiophene-2-)sulfonamido]butan-2-yl]carbamoyl}amino)-18,18-dimethyl-2,15-dioxo-1,14-diazatricyclo[14.4.0.0^{17,19}]icosan-13-yl]-2-oxo-N-propylacetamide]"
4,5 nM,"CN(C)C(=O)[C@@H](NC(=O)CNC(=O)C(=O)[C@@H]1CCCC/C=C/CCCC[C@H](NC(=O)OC(C)(C)C)C(=O)N2C[C@H]3[C@@H]([C@H]2C(=O)N1)C3(C)C)c1ccccc1 [tert-butyl N-[(3S,8E,14S,17S,18R,20S)-14-{[({[(S)-(dimethylcarbamoyl)(phenyl)methyl]carbamoyl}methyl)carbamoyl]carbonyl}-19,19-dimethyl-2,16-dioxo-1,15-diazatricyclo[15.4.0.0^{18,20}]henicos-8-en-3-yl]carbamate]"
5,59 nM,"CC(C)(C)NC(=O)N[C@H]1CCCCCCCCCC[C@@H](C(=O)C(N)=O)NC(=O)[C@@H]2[C@@H]3[C@H](CN2C1=O)C3(C)C [2-[(3S,14S,17S,18R,20S)-3-[(tert-butylcarbamoyl)amino]-19,19-dimethyl-2,16-dioxo-1,15-diazatricyclo[15.4.0.0^{18,20}]henicosan-14-yl]-2-oxoacetamide]"
6,6000 nM,"CC(C)(C)NC(=O)C(=O)[C@@H]1CCCCCCCCCC[C@H](NC(=O)OC(C)(C)C)C(=O)N2C[C@H]3[C@@H]([C@H]2C(=O)N1)C3(C)C [tert-butyl N-[(3S,14S,17S,18R,20S)-14-[(tert-butylcarbamoyl)carbonyl]-19,19-dimethyl-2,16-dioxo-1,15-diazatricyclo[15.4.0.0^{18,20}]henicosan-3-yl]carbamate]"
7,30 nM,"CC(C)(C)OC(=O)N[C@H]1CCCCCCCCC[C@@H](C(=O)C(N)=O)NC(=O)[C@@H]2[C@@H]3[C@H](CN2C1=O)C3(C)C [tert-butyl N-[(3S,13S,16S,17R,19S)-13-(carbamoylcarbonyl)-18,18-dimethyl-2,15-dioxo-1,14-diazatricyclo[14.4.0.0^{17,19}]icosan-3-yl]carbamate]"
8,5 nM,"C=CCNC(=O)C(=O)[C@@H]1CCCCCCCCC[C@H](NC(=O)N[C@H](CN(C)S(=O)(=O)c2cccs2)C(C)(C)C)C(=O)N2C[C@H]3[C@@H]([C@H]2C(=O)N1)C3(C)C [2-[(3S,13S,16S,17R,19S)-3-({[(2S)-3,3-dimethyl-1-[methyl(thiophene-2-)sulfonamido]butan-2-yl]carbamoyl}amino)-18,18-dimethyl-2,15-dioxo-1,14-diazatricyclo[14.4.0.0^{17,19}]icosan-13-yl]-2-oxo-N-(prop-2-en-1-yl)acetamide]"
